The source made the active and inactive calls.
Tests used:
[1] = target: Serine/threonine-protein kinase PLK3 (Homo sapiens, UniProt Q9H4B4); assay type: functional
[2] = target: Serine/threonine-protein kinase TAO1 (Homo sapiens, UniProt Q7L7X3); assay type: functional
[3] = target: RAC-alpha serine/threonine-protein kinase (Homo sapiens, UniProt P31749); assay type: functional;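 note: AKT1 affinity measured as one member of a kinome-wide kinase profiling panel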
[4] = target: STE20-like serine/threonine-protein kinase (Homo sapiens, UniProt Q9H2G2); assay type: functional
[5] = target: Receptor tyrosine-protein kinase erbB-2 (Homo sapiens, UniProt P04626); assay: Navigating the Kinome. Panel member name: ERBB2; assay type: functional
[6] = target: Testis-specific serine/threonine-protein kinase 2 (Homo sapiens, UniProt Q96PF2); assay type: functional;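 note: part of the Navigating the Kinome panel, target entry STK22B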
[7] = target: Serine/threonine-protein kinase Nek4 (Homo sapiens, UniProt P51957); assay type: functional
[8] = target: Serine/threonine-protein kinase DCLK1 (Homo sapiens, UniProt O15075); assay type: functional;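 note: affinity for DCLK1 (listed as DCAMKL1) measured as one member of a kinome-wide kinase profiling panel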
[9] = target: Dual specificity protein kinase CLK4 (Homo sapiens, UniProt Q9HAZ1); assay type: functional
[10] = target: Tyrosine-protein kinase ABL1 (Homo sapiens, UniProt P00519); assay type: functional
[11] = target: Serine/threonine-protein kinase 17A (Homo sapiens, UniProt Q9UEE5); assay type: functional
[12] = target: Serine/threonine-protein kinase D3 (Homo sapiens, UniProt O94806); assay type: functional;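 note: determined within a kinase panel screen, with PRKCN as the panel member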
Aspartyl aminopeptidase = target: T1, Aspartyl aminopeptidase (Plasmodium falciparum 3D7, UniProt Q8I2J3)
T1 sequence (Q8I2J3 whole entry): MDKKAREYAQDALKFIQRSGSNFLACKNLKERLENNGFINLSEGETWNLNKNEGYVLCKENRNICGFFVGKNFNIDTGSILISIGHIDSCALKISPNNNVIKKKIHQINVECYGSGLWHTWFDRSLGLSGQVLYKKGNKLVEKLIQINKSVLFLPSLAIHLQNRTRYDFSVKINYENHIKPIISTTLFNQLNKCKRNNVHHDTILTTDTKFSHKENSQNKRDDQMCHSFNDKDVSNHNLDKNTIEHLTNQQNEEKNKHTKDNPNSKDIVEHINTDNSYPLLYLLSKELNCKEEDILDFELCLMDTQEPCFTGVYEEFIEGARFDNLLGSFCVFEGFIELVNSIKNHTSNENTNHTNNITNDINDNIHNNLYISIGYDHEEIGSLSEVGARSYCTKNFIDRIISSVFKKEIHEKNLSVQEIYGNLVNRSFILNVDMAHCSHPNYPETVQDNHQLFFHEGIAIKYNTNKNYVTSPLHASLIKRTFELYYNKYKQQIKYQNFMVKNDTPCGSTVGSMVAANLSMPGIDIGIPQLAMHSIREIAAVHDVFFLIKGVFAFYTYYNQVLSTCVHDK

[13] = target: SWI/SNF-related matrix-associated actin-dependent regulator of chromatin subfamily A member 2 (Homo sapiens, UniProt P51531); assay: Luminescence-based cell-based high throughput dose response assay to identify activators of the function of SWI/SNF related, matrix associated, actin dependent regulator of chromatin, subfamily a, member 2 (SMARCA2, BRM).; assay type: functional
[14] = target: DNA dC->dU-editing enzyme APOBEC-3G (Homo sapiens, UniProt Q9HC16); assay: Dose Response confirmation of small molecule APOBEC3G DNA Deaminase Inhibitors via a fluorescence-based single-stranded DNA deaminase assay. [Related pubchem assays (depositor defined):AID493012, AID493028]; assay type: functional
[15] = target: T2, Sentrin-specific protease 8 (Homo sapiens, UniProt Q96LD8); assay type: functional;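 note: luminescence read-out of SENP8 inhibition, dose-response confirmation following an ultra-high-throughput screen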
T2 sequence (Q96LD8 whole entry): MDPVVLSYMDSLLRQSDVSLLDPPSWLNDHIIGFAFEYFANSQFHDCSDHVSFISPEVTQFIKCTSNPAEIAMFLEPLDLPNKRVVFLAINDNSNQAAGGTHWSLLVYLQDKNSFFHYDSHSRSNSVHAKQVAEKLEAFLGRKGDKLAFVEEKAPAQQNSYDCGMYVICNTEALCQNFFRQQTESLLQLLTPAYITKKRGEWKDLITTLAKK

[16] = target: T3, Sentrin-specific protease 6 (Homo sapiens, UniProt Q9GZR1); assay type: functional;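 note: Luminescence-based dose-response confirmatory assay of SENP6 inhibition, following up an ultra-high-throughput screen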
T3 sequence (Q9GZR1 whole entry): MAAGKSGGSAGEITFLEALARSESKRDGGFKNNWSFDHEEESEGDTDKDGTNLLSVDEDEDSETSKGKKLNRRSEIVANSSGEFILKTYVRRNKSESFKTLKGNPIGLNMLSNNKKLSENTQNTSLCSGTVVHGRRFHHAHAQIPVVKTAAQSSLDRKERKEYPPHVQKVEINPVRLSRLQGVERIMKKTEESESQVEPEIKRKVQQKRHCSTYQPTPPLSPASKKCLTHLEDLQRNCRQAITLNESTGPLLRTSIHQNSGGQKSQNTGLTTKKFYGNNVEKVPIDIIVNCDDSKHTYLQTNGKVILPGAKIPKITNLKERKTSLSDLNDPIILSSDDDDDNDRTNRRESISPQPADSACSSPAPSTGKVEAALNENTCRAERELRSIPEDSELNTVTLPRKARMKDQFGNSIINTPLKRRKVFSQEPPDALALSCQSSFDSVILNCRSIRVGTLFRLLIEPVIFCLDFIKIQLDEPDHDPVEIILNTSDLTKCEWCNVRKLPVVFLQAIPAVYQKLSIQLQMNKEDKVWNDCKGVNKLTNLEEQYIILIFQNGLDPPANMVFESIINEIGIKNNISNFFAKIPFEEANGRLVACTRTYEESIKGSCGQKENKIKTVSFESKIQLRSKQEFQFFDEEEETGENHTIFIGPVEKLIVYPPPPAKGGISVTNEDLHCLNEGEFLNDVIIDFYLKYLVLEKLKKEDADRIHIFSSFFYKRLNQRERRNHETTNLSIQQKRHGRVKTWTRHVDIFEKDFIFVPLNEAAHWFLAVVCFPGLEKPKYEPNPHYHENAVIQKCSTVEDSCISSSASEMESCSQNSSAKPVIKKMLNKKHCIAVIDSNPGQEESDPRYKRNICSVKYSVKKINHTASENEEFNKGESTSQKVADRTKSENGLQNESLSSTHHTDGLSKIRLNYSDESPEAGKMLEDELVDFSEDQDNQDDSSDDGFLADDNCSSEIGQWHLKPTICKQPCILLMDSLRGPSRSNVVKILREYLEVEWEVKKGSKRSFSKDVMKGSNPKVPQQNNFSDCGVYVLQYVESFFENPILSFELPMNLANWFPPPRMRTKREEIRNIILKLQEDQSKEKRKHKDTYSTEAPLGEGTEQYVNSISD

[17] = target: Tyrosyl-DNA phosphodiesterase 2 (Homo sapiens, UniProt O95551); assay: potency against TDP2 phosphodiesterase activity – biochemical, epi absorbance, IC50, dose response (AID 743297)

Sequence of STE20-like serine/threonine-protein kinase (Q9H2G2 whole entry): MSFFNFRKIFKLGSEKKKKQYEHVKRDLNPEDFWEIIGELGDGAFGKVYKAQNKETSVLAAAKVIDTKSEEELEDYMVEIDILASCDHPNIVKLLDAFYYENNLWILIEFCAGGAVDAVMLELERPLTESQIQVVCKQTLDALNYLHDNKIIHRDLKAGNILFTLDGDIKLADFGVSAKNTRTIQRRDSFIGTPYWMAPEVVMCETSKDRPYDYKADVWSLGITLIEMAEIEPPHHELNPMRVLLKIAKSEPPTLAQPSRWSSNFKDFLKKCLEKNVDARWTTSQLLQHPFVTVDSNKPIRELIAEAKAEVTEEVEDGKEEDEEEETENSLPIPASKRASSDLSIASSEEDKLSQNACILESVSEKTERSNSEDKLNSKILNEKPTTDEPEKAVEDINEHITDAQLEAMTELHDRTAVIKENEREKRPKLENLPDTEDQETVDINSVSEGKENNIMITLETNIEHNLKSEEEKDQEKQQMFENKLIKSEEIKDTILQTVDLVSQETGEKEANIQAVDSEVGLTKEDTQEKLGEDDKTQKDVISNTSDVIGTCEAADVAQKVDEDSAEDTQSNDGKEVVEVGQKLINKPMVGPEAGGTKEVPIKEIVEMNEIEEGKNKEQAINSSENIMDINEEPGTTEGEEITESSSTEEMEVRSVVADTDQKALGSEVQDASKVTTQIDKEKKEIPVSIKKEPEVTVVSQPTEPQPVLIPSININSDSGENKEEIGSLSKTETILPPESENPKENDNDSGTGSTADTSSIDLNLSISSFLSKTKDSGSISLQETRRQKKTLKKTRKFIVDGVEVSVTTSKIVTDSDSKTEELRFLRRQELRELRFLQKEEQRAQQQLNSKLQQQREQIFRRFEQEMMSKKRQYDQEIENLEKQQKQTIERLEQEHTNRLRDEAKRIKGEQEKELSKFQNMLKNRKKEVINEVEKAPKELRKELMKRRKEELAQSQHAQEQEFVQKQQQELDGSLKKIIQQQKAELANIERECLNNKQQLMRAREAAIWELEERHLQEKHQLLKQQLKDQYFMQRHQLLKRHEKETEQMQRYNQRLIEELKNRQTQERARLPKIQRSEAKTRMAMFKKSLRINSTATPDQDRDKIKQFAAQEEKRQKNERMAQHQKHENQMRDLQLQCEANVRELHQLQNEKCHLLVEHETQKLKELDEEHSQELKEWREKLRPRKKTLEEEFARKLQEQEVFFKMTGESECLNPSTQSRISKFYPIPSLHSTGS
Sequence of Tyrosine-protein kinase ABL1 (P00519 whole entry): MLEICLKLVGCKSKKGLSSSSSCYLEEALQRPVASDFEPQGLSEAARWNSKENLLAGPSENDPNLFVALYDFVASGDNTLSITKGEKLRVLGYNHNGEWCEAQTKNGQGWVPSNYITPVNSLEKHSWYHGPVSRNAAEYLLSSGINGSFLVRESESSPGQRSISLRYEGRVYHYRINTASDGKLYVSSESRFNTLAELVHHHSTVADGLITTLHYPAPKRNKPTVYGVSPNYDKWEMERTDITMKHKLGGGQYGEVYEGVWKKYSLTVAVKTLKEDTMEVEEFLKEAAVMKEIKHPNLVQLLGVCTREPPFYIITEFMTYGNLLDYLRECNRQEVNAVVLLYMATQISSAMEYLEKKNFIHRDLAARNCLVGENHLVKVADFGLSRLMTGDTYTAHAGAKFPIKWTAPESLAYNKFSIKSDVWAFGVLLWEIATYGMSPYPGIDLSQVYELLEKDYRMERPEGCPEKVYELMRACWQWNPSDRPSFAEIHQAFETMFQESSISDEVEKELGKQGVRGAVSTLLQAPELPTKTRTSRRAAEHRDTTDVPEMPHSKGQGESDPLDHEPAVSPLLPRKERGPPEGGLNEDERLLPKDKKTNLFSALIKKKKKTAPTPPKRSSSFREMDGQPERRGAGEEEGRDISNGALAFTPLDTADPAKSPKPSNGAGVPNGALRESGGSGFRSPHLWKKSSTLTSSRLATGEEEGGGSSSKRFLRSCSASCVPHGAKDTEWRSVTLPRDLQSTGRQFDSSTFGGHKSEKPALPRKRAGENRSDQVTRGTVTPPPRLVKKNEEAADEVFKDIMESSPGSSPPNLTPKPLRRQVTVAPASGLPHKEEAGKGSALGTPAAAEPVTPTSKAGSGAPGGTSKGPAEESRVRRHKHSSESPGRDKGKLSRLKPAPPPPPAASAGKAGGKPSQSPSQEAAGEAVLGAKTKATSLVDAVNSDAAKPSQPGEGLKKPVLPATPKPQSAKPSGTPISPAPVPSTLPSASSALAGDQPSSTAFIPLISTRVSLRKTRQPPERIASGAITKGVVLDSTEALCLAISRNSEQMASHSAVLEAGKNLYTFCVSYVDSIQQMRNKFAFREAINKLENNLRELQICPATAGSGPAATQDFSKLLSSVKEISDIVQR
Sequence of RAC-alpha serine/threonine-protein kinase (P31749 whole entry): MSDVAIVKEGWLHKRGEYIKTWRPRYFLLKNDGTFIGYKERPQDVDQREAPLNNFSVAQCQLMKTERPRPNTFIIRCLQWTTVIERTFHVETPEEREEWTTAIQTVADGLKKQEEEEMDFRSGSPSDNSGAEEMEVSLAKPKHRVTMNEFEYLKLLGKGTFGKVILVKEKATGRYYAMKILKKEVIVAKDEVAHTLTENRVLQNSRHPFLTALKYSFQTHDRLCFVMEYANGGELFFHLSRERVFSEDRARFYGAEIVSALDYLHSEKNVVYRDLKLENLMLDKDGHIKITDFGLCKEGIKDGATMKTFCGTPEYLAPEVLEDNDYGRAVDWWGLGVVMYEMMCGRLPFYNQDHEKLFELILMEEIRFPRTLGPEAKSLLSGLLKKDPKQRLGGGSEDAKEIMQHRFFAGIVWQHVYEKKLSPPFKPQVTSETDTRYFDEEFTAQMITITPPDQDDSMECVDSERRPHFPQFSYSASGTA
Sequence of Serine/threonine-protein kinase PLK3 (Q9H4B4 whole entry): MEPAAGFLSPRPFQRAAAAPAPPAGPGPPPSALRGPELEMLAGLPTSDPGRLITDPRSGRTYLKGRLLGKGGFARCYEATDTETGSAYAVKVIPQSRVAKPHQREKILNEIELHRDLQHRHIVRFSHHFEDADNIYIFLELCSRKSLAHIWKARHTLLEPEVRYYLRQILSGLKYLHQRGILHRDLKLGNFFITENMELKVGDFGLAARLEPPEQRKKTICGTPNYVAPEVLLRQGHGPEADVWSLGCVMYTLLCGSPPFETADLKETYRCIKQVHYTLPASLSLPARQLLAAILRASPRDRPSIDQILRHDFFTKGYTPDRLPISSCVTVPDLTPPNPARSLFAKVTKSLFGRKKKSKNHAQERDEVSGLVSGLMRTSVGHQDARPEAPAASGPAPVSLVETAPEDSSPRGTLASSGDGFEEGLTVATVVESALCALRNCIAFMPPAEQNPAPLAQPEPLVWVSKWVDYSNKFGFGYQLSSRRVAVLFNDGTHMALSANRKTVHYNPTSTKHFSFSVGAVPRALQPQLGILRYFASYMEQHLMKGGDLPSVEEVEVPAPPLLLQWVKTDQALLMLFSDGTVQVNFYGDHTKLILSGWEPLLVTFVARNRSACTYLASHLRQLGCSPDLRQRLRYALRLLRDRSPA
Sequence of SWI/SNF-related matrix-associated actin-dependent regulator of chromatin subfamily A member 2 (P51531 whole entry): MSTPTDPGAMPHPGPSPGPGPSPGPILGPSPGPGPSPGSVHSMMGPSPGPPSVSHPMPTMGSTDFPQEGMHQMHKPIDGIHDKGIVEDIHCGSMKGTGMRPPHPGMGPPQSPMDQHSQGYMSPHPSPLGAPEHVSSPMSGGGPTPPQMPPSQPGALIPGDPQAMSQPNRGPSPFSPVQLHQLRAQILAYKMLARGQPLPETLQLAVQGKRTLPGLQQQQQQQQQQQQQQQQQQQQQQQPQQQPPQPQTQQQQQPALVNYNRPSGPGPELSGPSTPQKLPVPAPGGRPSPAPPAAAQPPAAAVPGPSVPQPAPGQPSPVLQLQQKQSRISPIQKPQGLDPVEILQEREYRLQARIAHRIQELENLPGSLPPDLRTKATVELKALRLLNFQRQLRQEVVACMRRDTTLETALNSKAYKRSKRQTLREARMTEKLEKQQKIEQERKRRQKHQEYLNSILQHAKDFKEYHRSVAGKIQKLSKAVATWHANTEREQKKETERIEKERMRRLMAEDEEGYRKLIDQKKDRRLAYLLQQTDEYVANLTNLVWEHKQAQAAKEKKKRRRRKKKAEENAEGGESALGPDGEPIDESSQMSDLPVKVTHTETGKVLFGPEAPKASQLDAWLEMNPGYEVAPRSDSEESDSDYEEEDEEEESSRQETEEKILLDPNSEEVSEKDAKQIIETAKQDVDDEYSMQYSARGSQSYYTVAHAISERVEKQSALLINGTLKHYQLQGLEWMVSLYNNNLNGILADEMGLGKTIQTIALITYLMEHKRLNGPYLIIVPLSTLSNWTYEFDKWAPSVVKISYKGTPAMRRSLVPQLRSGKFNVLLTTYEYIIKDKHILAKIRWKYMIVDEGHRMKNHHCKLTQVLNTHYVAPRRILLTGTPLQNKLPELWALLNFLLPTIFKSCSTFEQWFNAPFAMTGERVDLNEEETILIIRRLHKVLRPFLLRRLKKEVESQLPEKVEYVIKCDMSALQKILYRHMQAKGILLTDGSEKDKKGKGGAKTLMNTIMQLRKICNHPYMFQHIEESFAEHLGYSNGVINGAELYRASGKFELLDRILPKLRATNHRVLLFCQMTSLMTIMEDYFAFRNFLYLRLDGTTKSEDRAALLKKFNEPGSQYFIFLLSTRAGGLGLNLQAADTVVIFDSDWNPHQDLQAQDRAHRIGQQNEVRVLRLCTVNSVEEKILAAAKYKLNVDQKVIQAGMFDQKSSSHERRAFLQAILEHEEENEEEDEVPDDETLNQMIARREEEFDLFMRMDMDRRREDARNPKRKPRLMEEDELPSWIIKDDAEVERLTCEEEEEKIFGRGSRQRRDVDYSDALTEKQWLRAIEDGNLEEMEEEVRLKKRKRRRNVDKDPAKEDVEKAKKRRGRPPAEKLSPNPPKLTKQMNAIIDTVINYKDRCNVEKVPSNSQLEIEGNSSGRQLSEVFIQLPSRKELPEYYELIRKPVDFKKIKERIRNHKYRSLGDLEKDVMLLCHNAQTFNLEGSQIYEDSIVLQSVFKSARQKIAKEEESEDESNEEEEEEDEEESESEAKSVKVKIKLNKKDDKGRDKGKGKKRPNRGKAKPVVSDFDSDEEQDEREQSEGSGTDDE

Compound: Cc1cccc(NC(=O)Nc2ccc3c(c2)CCc2sc4ncnc(N)c4c2-3)c1
- Ki [1]: 2000 nM (active)
- Ki [2]: 3980 nM (active)
- Ki [3]: > 7940 nM (inactive)
- Ki [4]: 63.1 nM (active)
- Ki [5]: > 1580 nM (inactive)
- Ki [6]: > 1580 nM (inactive)
- Ki [7]: > 6310 nM (inactive)
- Ki [8]: > 10000 nM (inactive)
- Ki [9]: 126 nM (active)
- Ki [10]: > 631 nM (inactive)
- Ki [11]: > 3980 nM (inactive)
- Ki [12]: 2510 nM (active)

Compound: Cc1ccc(-n2sc3ccccc3c2=O)cc1
- IC50 (Aspartyl aminopeptidase): 1250 nM (active)
- EC50 [13]: > 91200 nM (inactive)
- IC50 [14]: 18200 nM (active)

Compound: CC(=O)N(/N=C1\Sc2ccccc2C1=O)c1ccccc1C
- IC50 [15]: 3460 nM (active)
- IC50 [16]: 1910 nM (active)
- IC50 [17]: 7670 nM (active)
